Assay results reported in patent publication US20200254241A1, “ELECTRICAL METHOD OF DELIVERING HYALURONIC ACID THROUGH THE SKIN” (priority 2017, published 2020).

Key:
[1] = Skin images (confocal microscopy) for skin damage after the electrical treatment; parameters: species or system porcine; conditions: for skin damage in skin images: electroporation condition 9 plus iontophoresis
Method: The combination of such parameters with iontophoresis at 0.2 mA/cm^2 for 20 min has also been corroborated (x 12 vs. passive diffusion).
9. Take photos to make a visual record of skin condition.
The skin images obtained provide more information about the possible skin damage produced by the electroporation treatment.

[2] = In vitro skin deposition of FL-HA (120 kDa) in Franz diffusion cells, fluorimetry; format: in vitro ADME, porcine
Excerpt: The effect of electroporation parameters on skin integrity and transport of hyaluronic acid (at 1% by weight in water) 120 kDa (HA) labeled with fluorescein into the permeabilzed skin was investigated in vitro using electroporation vs. its passive diffusion.
ii) porating mode (100-250 V, shorter pulse lengths and low number of pulses). Franz-diffusion cells were used to evaluate the in vitro delivery.
Porcine ear skin was used for the in vitro studies. It is accepted as a good model for the human skin barrier. Hairs were excised from the skin surface using clippers. The skin was “sliced” so as to obtain samples with an average thickness of 1.5 mm for all samples. Skin was frozen (−20° C.) or stored at 4° C. until use.
The FL-HA was quantified using by fluorimetry. The measurements were performed using a microplate reader. The excitation and emission wavelengths were 494 and 514 nm. The gain was adjusted to 80 in order to obtain better sensitivity of the samples. All samples were put in polystyrene 96-well plates and protected from the light until analysis. Furthermore, a calibration curve was included in every plate.
The aim of the experiments was to quantify penetration of FL-HA (120 kDa) into intact, electroporated porcine ear skin with and without iontophoresis) as a function of duration using the optimal treatment conditions identified in the previous part of the study. Electroporation treatment was performed either as (i) pre-treatment, where electroporation was performed before formulation application, or as (ii) co-treatment, where the elcetroporation treatment was performed simultaneou.sly in the presence of the formulation. All conditions were tested for 10 and 20 min.
3. Condition 9 (Voltage 250 V, Pulse length 15 ms, Pulse interval 50 ms and 9 Pulses), pre-treatment with electroporation
4. Condition 9 (Voltage 250 V, Pulse length 15 ms, Pulse interval 50 ms and 9 Pulses), simultaneous treatment with electroporation and formulation
7. Control: Application of an aqueous solution of FL-HA (120 kDa) formula on (1% w/w) to “untreated” skin. […]

skin deposition, electroporation plus iontophoresis (CT+I) compared with electroporation alone (CT) ([2]; condition 9, iontophoresis 0.2 mA/cm^2 for 20 min, p<0.05, ANOVA, Student Newman Keuls test): statistically superior | skin deposition, electroporation plus iontophoresis (CT+I) compared with electroporation alone (CT) ([2]; condition 9, iontophoresis 0.2 mA/cm^2 up to 10 min): not increasing the deposition | increase in skin deposition vs. passive diffusion ([2]; electroporation combined with iontophoresis at 0.2 mA/cm^2 for 20 min): 12 x
Substance: hyaluronic acid [HA 120 kDa]
visual damage to the membrane (skin) ([1]; electroporation alone, 250 V, pulse length 15 ms, pulse interval 50 ms, <10 pulses): no visual damage | skin damage in skin images [1]: lack of significant damage to the skin | skin damage in skin images ([1]; listed as 120 kDa FL-HA formulation): no damage was observed
